Data taken from patent US11098342B2, “Time lapse sequencing: a convertible-nucleoside approach to enrichment-free analysis of RNA dynamics” (Yale University, priority 2017, dated 2021).

System: MEF cells
Experiment: MEF cell viability, MTT Cell Proliferation Assay
Assay type: cell-based, mouse
Conditions: MEF cells treated with s^4U (0-1 mM) for 1 hour; MTT assay in triplicate
Description: FIG. 9A depicts exemplary MEF cell viability assays with increasing concentrations of s^4U (0, 50, 100, 500 and 1000 μM). FIG. 9B depicts exemplary MEF cell viability assays with increasing concentrations of Triton-X-100 (0, 0.5, 1, and 2%). MEF cells were plated at 10^6 cells/ml and allowed to rest overnight. An MTT assay (ATTC MTT Cell Proliferation Assay kit) was performed in triplicate after indicated treatment for 1 h. After treatment and lysis, absorbance at 570 nm was measured. FIG. 9C depicts an exemplary MA-plot of expression levels in RNA-seq in MEF cells treated with 1 mM s^4U for 1 hour, compared to cells without s^4U treatment. […] Each condition was tested with two replicates. Conditions are: ++, with s^4U treatment and chemical treatment; +−, with s^4U treatment but no chemical treatment; −+, no s^4U treatment but with chemical treatment; −−, neither s^4U treatment nor chemical treatment.
MEF cells were grown at 37° C. in DMEM containing 10% FBS and 1% P/S. Cells were plated at 10^6 cells/mL in a 96-well microtiter plate and allowed to recover overnight. Cells were then treated in triplicate with increasing concentrations of s^4U (0-1 mM) for 1 hour, and the ATCC MTT Cell Proliferation Assay kit was used according to manufacturer's instructions to assess cell viability.

Structure (SMILES): O=c1[nH]c(=S)ccn1[C@@H]1O[C@H](CO)[C@@H](O)[C@H]1O [s^4U, 4-thiouridine]
- s^4U toxicity (cell viability, absorbance at 570 nm): no s^4U toxicity was observed
